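48-hour exposure; five concentrations; linearly interpolated endpoints. GI50 marks 50% less growth.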 Calls of active or inactive are those of the source. No stated cut-off is given here; in the data, active = GI50 up to about 1.1 µM and inactive = higher.
Tests used:
Experiment in all cases: NCI tumour cell line growth inhibition, 48 h
K562 = tested on: K562
UACC-62 = tested on: UACC-62
ACHN = tested on: ACHN
IGROV-1 = tested on: IGROV-1
SW-620 = tested on: SW-620
HCC 2998 = tested on: HCC 2998
OVCAR-8 = tested on: OVCAR-8
U-251 = tested on: U-251
NCI-H522 = tested on: NCI-H522
786-0 = tested on: 786-0
TK-10 = tested on: TK-10
COLO 205 = tested on: COLO 205
Malme-3M = tested on: Malme-3M
SK-MEL-2 = tested on: SK-MEL-2
SK-OV-3 = tested on: SK-OV-3
A549 = tested on: A549
HOP-62 = tested on: HOP-62
SF-295 = tested on: SF-295

SMILES: C[n+]1c2ccccc2c(CNCC(=O)O)c2ccccc21
- GI50 (K562): 0.504 µM (active)
- GI50 (UACC-62): 1.21 µM (inactive)
- GI50 (ACHN): 0.61 µM (active)
- GI50 (IGROV-1): 5.96 µM (inactive)
- GI50 (SW-620): 0.571 µM (active)
- GI50 (HCC 2998): 5.92 µM (inactive)
- GI50 (OVCAR-8): 2.75 µM (inactive)
- GI50 (U-251): 3.62 µM (inactive)
- GI50 (NCI-H522): 0.137 µM (active)
- GI50 (786-0): 1.17 µM (inactive)
- GI50 (TK-10): 0.708 µM (active)
- GI50 (COLO 205): 0.418 µM (active)
- GI50 (Malme-3M): 11.9 µM (inactive)
- GI50 (SK-MEL-2): 2.43 µM (inactive)
- GI50 (SK-OV-3): 4.74 µM (inactive)
- GI50 (A549): 3.76 µM (inactive)
- GI50 (HOP-62): 6.27 µM (inactive)
- GI50 (SF-295): 5.07 µM (inactive)

SMILES: C[Si](C)(c1ccccc1)C1CC(=O)CC(=O)C1
- GI50 (K562): > 100 µM (inactive)
- GI50 (UACC-62): > 100 µM (inactive)
- GI50 (ACHN): > 100 µM (inactive)
- GI50 (IGROV-1): 22.7 µM (inactive)
- GI50 (SW-620): > 100 µM (inactive)
- GI50 (HCC 2998): > 100 µM (inactive)
- GI50 (OVCAR-8): > 100 µM (inactive)
- GI50 (U-251): > 100 µM (inactive)
- GI50 (NCI-H522): 26.1 µM (inactive)
- GI50 (786-0): 21.4 µM (inactive)
- GI50 (TK-10): > 100 µM (inactive)
- GI50 (COLO 205): > 100 µM (inactive)
- GI50 (Malme-3M): > 100 µM (inactive)
- GI50 (SK-MEL-2): > 100 µM (inactive)
- GI50 (SK-OV-3): > 100 µM (inactive)
- GI50 (A549): > 100 µM (inactive)
- GI50 (HOP-62): > 100 µM (inactive)
- GI50 (SF-295): > 100 µM (inactive)

SMILES: O=c1c(-c2ccccc2)c2oc(c1-c1ccccc1)CSCc1cccc(c1)CSC2
- GI50 (K562): 62.5 µM (inactive)
- GI50 (UACC-62): 44.1 µM (inactive)
- GI50 (ACHN): 18.5 µM (inactive)
- GI50 (IGROV-1): 26.3 µM (inactive)
- GI50 (SW-620): 30.3 µM (inactive)
- GI50 (HCC 2998): 94.6 µM (inactive)
- GI50 (OVCAR-8): 43.1 µM (inactive)
- GI50 (U-251): 31 µM (inactive)
- GI50 (NCI-H522): 39.6 µM (inactive)
- GI50 (786-0): 27.5 µM (inactive)
- GI50 (TK-10): 87.1 µM (inactive)
- GI50 (COLO 205): 49.1 µM (inactive)
- GI50 (Malme-3M): 45.5 µM (inactive)
- GI50 (SK-MEL-2): > 100 µM (inactive)
- GI50 (SK-OV-3): 25.1 µM (inactive)
- GI50 (A549): 38.5 µM (inactive)
- GI50 (HOP-62): 21.9 µM (inactive)
- GI50 (SF-295): 51.2 µM (inactive)

SMILES: Cc1ccc(S(=O)(=O)NC2(C=O)CCC(C(C)(C)C)CC2)cc1 (stereo not drawn)
- GI50 (K562): 28.8 µM (inactive)
- GI50 (UACC-62): 39 µM (inactive)
- GI50 (ACHN): 32.5 µM (inactive)
- GI50 (IGROV-1): 37.7 µM (inactive)
- GI50 (SW-620): 70.3 µM (inactive)
- GI50 (HCC 2998): 36.9 µM (inactive)
- GI50 (OVCAR-8): 36.5 µM (inactive)
- GI50 (U-251): 34.3 µM (inactive)
- GI50 (NCI-H522): 24.3 µM (inactive)
- GI50 (786-0): 37.9 µM (inactive)
- GI50 (TK-10): 33.8 µM (inactive)
- GI50 (COLO 205): 26.7 µM (inactive)
- GI50 (Malme-3M): 35.2 µM (inactive)
- GI50 (SK-MEL-2): 44.6 µM (inactive)
- GI50 (SK-OV-3): > 100 µM (inactive)
- GI50 (A549): 35.1 µM (inactive)
- GI50 (HOP-62): > 100 µM (inactive)
- GI50 (SF-295): 31.3 µM (inactive)

SMILES: Nc1nc2c(ncn2CCCC(c2ccccc2)P(=O)(O)O)c(=O)[nH]1 (stereo not drawn)
- GI50 (K562): > 100 µM (inactive)
- GI50 (UACC-62): > 100 µM (inactive)
- GI50 (ACHN): > 100 µM (inactive)
- GI50 (IGROV-1): > 100 µM (inactive)
- GI50 (SW-620): > 100 µM (inactive)
- GI50 (HCC 2998): > 100 µM (inactive)
- GI50 (OVCAR-8): > 100 µM (inactive)
- GI50 (U-251): > 100 µM (inactive)
- GI50 (NCI-H522): > 100 µM (inactive)
- GI50 (786-0): > 100 µM (inactive)
- GI50 (TK-10): > 100 µM (inactive)
- GI50 (COLO 205): > 100 µM (inactive)
- GI50 (Malme-3M): > 100 µM (inactive)
- GI50 (SK-MEL-2): > 100 µM (inactive)
- GI50 (SK-OV-3): > 100 µM (inactive)
- GI50 (A549): > 100 µM (inactive)
- GI50 (HOP-62): > 100 µM (inactive)
- GI50 (SF-295): > 100 µM (inactive)

SMILES: Cc1cc2c(C(C)C)c(O)c(O)c(/C=N\CCO)c2c(O)c1-c1c(C)cc2c(C(C)C)c(O)c(O)c(/C=N/CCO)c2c1O
- GI50 (K562): 1.02 µM (active)
- GI50 (UACC-62): 2.74 µM (inactive)
- GI50 (ACHN): 3.37 µM (inactive)
- GI50 (IGROV-1): 1.91 µM (inactive)
- GI50 (SW-620): 3.83 µM (inactive)
- GI50 (HCC 2998): 2.9 µM (inactive)
- GI50 (OVCAR-8): 3.3 µM (inactive)
- GI50 (U-251): 1.21 µM (inactive)
- GI50 (NCI-H522): 2.04 µM (inactive)
- GI50 (786-0): 2.1 µM (inactive)
- GI50 (TK-10): 6.4 µM (inactive)
- GI50 (COLO 205): 1.63 µM (inactive)
- GI50 (Malme-3M): 2.47 µM (inactive)
- GI50 (SK-MEL-2): 3.15 µM (inactive)
- GI50 (SK-OV-3): 3.37 µM (inactive)
- GI50 (A549): 1.21 µM (inactive)
- GI50 (HOP-62): 2.6 µM (inactive)
- GI50 (SF-295): 2.15 µM (inactive)

Source: ChEMBL document CHEMBL1201862, “PubChem BioAssay data set” (2004)
